In the supplement of paper PMC10307832:

Columns and labels:
Assay in all cases: relative viability (nuclei count vs DMSO), 5 days (fraction); higher = more cells survive
ABC-1 = system: ABC-1
In short: (§1)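 The day after seeding in 1536-well plates, lung cancer cell lines were treated by pin tool with a single drug, or with a fixed anchor-drug dose together with five library-drug doses (not always all listed) in √10 steps. After 5 days, a combined fix-and-stain solution (final 0.05% Triton X-100, 1% formaldehyde, 1 ug/ml Hoechst) was added. Nuclei counted on 4× images gave relative viability as treated counts over vehicle counts, reported as the median of duplicate plates.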

COR-L23 = system: COR-L23
In short: as §1

ChaGo-K-1 = system: ChaGo-K-1
In short: as §1

EMC-BAC-2 = system: EMC-BAC-2
In short: as §1

HARA = system: HARA
In short: as §1

HCC-15 = system: HCC-15
In short: as §1

HCC-366 = system: HCC-366
In short: as §1

HCC-78 = system: HCC-78
In short: as §1

HOP-62 = system: HOP-62
In short: as §1

LC-2-ad = system: LC-2-ad
In short: as §1

NCI-H1395 = system: NCI-H1395
In short: as §1

NCI-H1793 = system: NCI-H1793
In short: as §1

NCI-H1944 = system: NCI-H1944
In short: as §1

NCI-H1993 = system: NCI-H1993
In short: as §1

NCI-H2023 = system: NCI-H2023
In short: as §1

NCI-H2126 = system: NCI-H2126
In short: as §1

NCI-H2228 = system: NCI-H2228
In short: as §1

NCI-H23 = system: NCI-H23
In short: as §1

NCI-H2405 = system: NCI-H2405
In short: as §1

NCI-H358 = system: NCI-H358
In short: as §1

NCI-H838 = system: NCI-H838
In short: as §1

SK-LU-1 = system: SK-LU-1
In short: as §1

CC(=O)O[C@@]12CO[C@@H]1C[C@H](O)[C@@]1(C)C(=O)[C@H](O)C3=C(C)[C@@H](OC(=O)[C@H](O)[C@@H](NC(=O)OC(C)(C)C)c4ccccc4)C[C@@](O)([C@@H](OC(=O)c4ccccc4)[C@H]21)C3(C)C [Docetaxel] + O=C(c1cc(Cc2n[nH]c(=O)c3ccccc23)ccc1F)N1CCN(C(=O)C2CC2)CC1 [Olaparib] (partner 8 µM)
relative viability (ABC-1; first compound 0.0002 µM): 0.649
relative viability (ABC-1; first compound 0.000632 µM): 0.827
relative viability (ABC-1; first compound 0.002 µM): 0.564
relative viability (ABC-1; first compound 0.006325 µM): 0.535
relative viability (ABC-1; first compound 0.02 µM): 0.338
relative viability (COR-L23; first compound 0.0002 µM): 0.307
relative viability (COR-L23; first compound 0.000632 µM): 0.312
relative viability (COR-L23; first compound 0.002 µM): 0.161
relative viability (COR-L23; first compound 0.006325 µM): 0.134
relative viability (COR-L23; first compound 0.02 µM): 0.0881
relative viability (ChaGo-K-1; first compound 0.0002 µM): 0.384
relative viability (ChaGo-K-1; first compound 0.000632 µM): 0.335
relative viability (ChaGo-K-1; first compound 0.002 µM): 0.285
relative viability (ChaGo-K-1; first compound 0.006325 µM): 0.3
relative viability (ChaGo-K-1; first compound 0.02 µM): 0.181
relative viability (EMC-BAC-2; first compound 0.0002 µM): 0.492
relative viability (EMC-BAC-2; first compound 0.000632 µM): 0.47
relative viability (EMC-BAC-2; first compound 0.002 µM): 0.364
relative viability (EMC-BAC-2; first compound 0.006325 µM): 0.318
relative viability (EMC-BAC-2; first compound 0.02 µM): 0.237
relative viability (HARA; first compound 0.0002 µM): 0.858
relative viability (HARA; first compound 0.000632 µM): 0.335
relative viability (HARA; first compound 0.002 µM): 0.161
relative viability (HARA; first compound 0.006325 µM): 0.21
relative viability (HARA; first compound 0.02 µM): 0.0824
relative viability (HCC-15; first compound 0.0002 µM): 0.72
relative viability (HCC-15; first compound 0.000632 µM): 0.382
relative viability (HCC-15; first compound 0.002 µM): 0.281
relative viability (HCC-15; first compound 0.02 µM): 0.175
relative viability (HCC-366; first compound 0.0002 µM): 0.245
relative viability (HCC-366; first compound 0.000632 µM): 0.115
relative viability (HCC-366; first compound 0.002 µM): 0.0486
relative viability (HCC-366; first compound 0.006325 µM): 0.0381
relative viability (HCC-366; first compound 0.02 µM): 0.0133
relative viability (HCC-78; first compound 0.0002 µM): 0.859
relative viability (HCC-78; first compound 0.000632 µM): 0.777
relative viability (HCC-78; first compound 0.002 µM): 0.41
relative viability (HCC-78; first compound 0.006325 µM): 0.329
relative viability (HCC-78; first compound 0.02 µM): 0.338
relative viability (HOP-62; first compound 0.0002 µM): 0.336
relative viability (HOP-62; first compound 0.000632 µM): 0.317
relative viability (HOP-62; first compound 0.002 µM): 0.129
relative viability (HOP-62; first compound 0.02 µM): 0.12
relative viability (LC-2-ad; first compound 0.0002 µM): 0.623
relative viability (LC-2-ad; first compound 0.000632 µM): 0.411
relative viability (LC-2-ad; first compound 0.002 µM): 0.304
relative viability (LC-2-ad; first compound 0.02 µM): 0.191
relative viability (NCI-H1395; first compound 0.0002 µM): 0.502
relative viability (NCI-H1395; first compound 0.000632 µM): 0.469
relative viability (NCI-H1395; first compound 0.002 µM): 0.481
relative viability (NCI-H1395; first compound 0.006325 µM): 0.341
relative viability (NCI-H1395; first compound 0.02 µM): 0.339
relative viability (NCI-H1793; first compound 0.0002 µM): 0.8
relative viability (NCI-H1793; first compound 0.000632 µM): 0.517
relative viability (NCI-H1793; first compound 0.002 µM): 0.287
relative viability (NCI-H1793; first compound 0.006325 µM): 0.293
relative viability (NCI-H1944; first compound 0.0002 µM): 0.439
relative viability (NCI-H1944; first compound 0.000632 µM): 0.396
relative viability (NCI-H1944; first compound 0.002 µM): 0.339
relative viability (NCI-H1944; first compound 0.006325 µM): 0.238
relative viability (NCI-H1944; first compound 0.02 µM): 0.118
relative viability (NCI-H1993; first compound 0.0002 µM): 0.929
relative viability (NCI-H1993; first compound 0.000632 µM): 0.918
relative viability (NCI-H1993; first compound 0.002 µM): 0.793
relative viability (NCI-H1993; first compound 0.006325 µM): 0.531
relative viability (NCI-H1993; first compound 0.02 µM): 0.409
relative viability (NCI-H2023; first compound 0.0002 µM): 0.437
relative viability (NCI-H2023; first compound 0.000632 µM): 0.313
relative viability (NCI-H2023; first compound 0.002 µM): 0.114
relative viability (NCI-H2023; first compound 0.006325 µM): 0.114
relative viability (NCI-H2023; first compound 0.02 µM): 0.0533
relative viability (NCI-H2126; first compound 0.0002 µM): 0.887
relative viability (NCI-H2126; first compound 0.000632 µM): 0.861
relative viability (NCI-H2126; first compound 0.002 µM): 0.615
relative viability (NCI-H2126; first compound 0.006325 µM): 0.348
relative viability (NCI-H2228; first compound 0.0002 µM): 0.446
relative viability (NCI-H2228; first compound 0.000632 µM): 0.275
relative viability (NCI-H2228; first compound 0.002 µM): 0.153
relative viability (NCI-H2228; first compound 0.006325 µM): 0.13
relative viability (NCI-H2228; first compound 0.02 µM): 0.0992
relative viability (NCI-H23; first compound 0.0002 µM): 0.366
relative viability (NCI-H23; first compound 0.002 µM): 0.221
relative viability (NCI-H23; first compound 0.006325 µM): 0.164
relative viability (NCI-H23; first compound 0.02 µM): 0.105
relative viability (NCI-H2405; first compound 0.0002 µM): 0.875
relative viability (NCI-H2405; first compound 0.000632 µM): 0.712
relative viability (NCI-H2405; first compound 0.002 µM): 0.557
relative viability (NCI-H2405; first compound 0.006325 µM): 0.419
relative viability (NCI-H2405; first compound 0.02 µM): 0.329
relative viability (NCI-H358; first compound 0.0002 µM): 0.551
relative viability (NCI-H358; first compound 0.000632 µM): 0.251
relative viability (NCI-H358; first compound 0.002 µM): 0.136
relative viability (NCI-H358; first compound 0.006325 µM): 0.147
relative viability (NCI-H358; first compound 0.02 µM): 0.095
relative viability (NCI-H838; first compound 0.0002 µM): 0.716
relative viability (NCI-H838; first compound 0.000632 µM): 0.368
relative viability (NCI-H838; first compound 0.002 µM): 0.268
relative viability (NCI-H838; first compound 0.006325 µM): 0.137
relative viability (NCI-H838; first compound 0.02 µM): 0.106
relative viability (SK-LU-1; first compound 0.0002 µM): 0.479
relative viability (SK-LU-1; first compound 0.000632 µM): 0.349
relative viability (SK-LU-1; first compound 0.002 µM): 0.315
relative viability (SK-LU-1; first compound 0.006325 µM): 0.256
relative viability (SK-LU-1; first compound 0.02 µM): 0.167
